Data as given in US10239870B2, “Dopamine D3 receptor antagonists” (priority 2014, dated 2019).

Biological target: hD2 recombinant receptor (human dopamine receptor type 2, long variant, CHO-Gα16-hD2L membranes) (Homo sapiens (Human), UniProt P14416)
Conditions: displacement of 0.08 nM [3H]-Spiperone

D2 pKi | SMILES
5.63 | Cc1ncoc1-c1nnc(SCCCN2CC[C@]3(CC3c3ccc(C(F)(F)F)nc3)C2)n1C (stereo partly drawn) [Example 61, (1R,3S/1S,3R)-5-(3-{[4-methyl-5-(4-methyl-1,3-oxazol-5-yl)-4H-1,2,4-triazol-3-yl]sulfanyl}propyl)-1-[6-(trifluoromethyl)pyridin-3-yl]-5-azaspiro[2.4]heptane]
5.99 | CC(=O)N1CCC(c2nnc(SCCCN3CC[C@]4(C[C@@H]4c4ccc(C(F)(F)F)cc4F)C3)n2C)CC1 [Example 101, 1-{4-[5-({3-[(1S,3S/1R,3R)-1-[2-fluoro-4-(trifluoromethyl)phenyl]-5-azaspiro[2.4]heptan-5-yl]propyl}sulfanyl)-4-methyl-4H-1,2,4-triazol-3-yl]piperidin-1-yl}ethan-1-one]
6.00 | CC(=O)N1CCC(c2nnc(SCCCN3CC[C@]4(C[C@@H]4c4ccc(C(F)(F)F)cc4F)C3)n2C)CC1.Cl [Example 102, 1-{4-[5-({3-[(1S,3S)-1-[2-fluoro-4-(trifluoromethyl)phenyl]-5-azaspiro[2.4]heptan-5-yl]propyl}sulfanyl)-4-methyl-4H-1,2,4-triazol-3-yl]piperidin-1-yl}ethan-1-one hydrochloride]
5.80 | COCCC(=O)N1CCC(c2nnc(SCCCN3CC[C@]4(C[C@@H]4c4ccc(C(F)(F)F)cc4)C3)n2C)CC1.Cl [Example 104, 3-methoxy-1-{4-[4-methyl-5-({3-[(1R,3S)-1-[4-(trifluoromethyl)phenyl]-5-azaspiro[2.4]heptan-5-yl]propyl}sulfanyl)-4H-1,2,4-triazol-3-yl]piperidin-1-yl}propan-1-one hydrochloride]
6.05 | Cl.Cn1c(SCCCN2CC[C@]3(C[C@@H]3c3ccc(C(F)(F)F)cc3)C2)nnc1C1CCN(C(=O)C2CC2)CC1 [Example 106, (1R,3S)-5-(3-{[5-(1-cyclopropanecarbonylpiperidin-4-yl)-4-methyl-4H-1,2,4-triazol-3-yl]sulfanyl}propyl)-1-[4-(trifluoromethyl)phenyl]-5-azaspiro[2.4]heptane hydrochloride]
5.56 | CC(=O)N1CC(c2nnc(SCCCN3CC[C@]4(C[C@@H]4c4ccc(C(F)(F)F)cc4)C3)n2C)C1 [Example 107, 1-{3-[4-methyl-5-({3-[(1R,3S/1S,3R)-1-[4-(trifluoromethyl)phenyl]-5-azaspiro[2.4]heptan-5-yl]propyl}sulfanyl)-4H-1,2,4-triazol-3-yl]azetidin-1-yl}ethan-1-one]
6.72 | Cn1c(SCCCN2CC[C@]3(CC3c3ccc(C(F)(F)F)cc3)C2)nnc1C1CCC(N)CC1 (stereo partly drawn) [Example 108, 4-[4-methyl-5-({3-[(1R,3S/1S,3R)-1-[4-(trifluoromethyl)phenyl]-5-azaspiro[2.4]heptan-5-yl]propyl}sulfanyl)-4H-1,2,4-triazol-3-yl]cyclohexan-1-amine]
5.92 | Cl.Cn1c(SCCCN2CC[C@]3(C[C@@H]3c3ccc(C(F)(F)F)cc3)C2)nnc1C1CCC(=O)NC1 (stereo partly drawn) [Example 121, 5-[4-methyl-5-({3-[(1R,3S)-1-[4-(trifluoromethyl)phenyl]-5-azaspiro[2.4]heptan-5-yl]propyl}sulfanyl)-4H-1,2,4-triazol-3-yl]piperidin-2-one hydrochloride]
6.34 | Cn1c(SCCCN2CC[C@]3(CC3c3ccc(C(F)(F)F)cc3)C2)nnc1-c1cccc(=O)[nH]1 (stereo partly drawn) [Example 122, 6-[4-methyl-5-({3-[(1R,3S/1S,3R)-1-[4-(trifluoromethyl)phenyl]-5-azaspiro[2.4]heptan-5-yl]propyl}sulfanyl)-4H-1,2,4-triazol-3-yl]-1,2-dihydropyridin-2-one]
6.00 | Cn1c(SCCCN2CC[C@]3(CC3c3ccc(C(F)(F)F)cc3F)C2)nnc1-c1cccc(=O)[nH]1 (stereo partly drawn) [Example 123, 6-[5-({3-[(1R,3S/1S,3R)-1-[2-fluoro-4-(trifluoromethyl)phenyl]-5-azaspiro[2.4]heptan-5-yl]propyl}sulfanyl)-4-methyl-4H-1,2,4-triazol-3-yl]-1,2-dihydropyridin-2-one]
5.32 | Cn1c(SCCCN2CC[C@]3(CC3c3ccc(C(F)(F)F)cc3)C2)nnc1-c1ccc[nH]c1=O (stereo partly drawn) [Example 124, 3-[4-methyl-5-({3-[(1R,3S/1S,3R)-1-[4-(trifluoromethyl)phenyl]-5-azaspiro[2.4]heptan-5-yl]propyl}sulfanyl)-4H-1,2,4-triazol-3-yl]-1,2-dihydropyridin-2-one]
5.48 | Cl.Cn1c(SCCCN2CC[C@]3(C[C@@H]3c3ccc(C(F)(F)F)cc3)C2)nnc1-c1ccc[nH]c1=O [Example 125, 3-[4-methyl-5-({3-[(1R,3S)-1-[4-(trifluoromethyl)phenyl]-5-azaspiro[2.4]heptan-5-yl]propyl}sulfanyl)-4H-1,2,4-triazol-3-yl]-1,2-dihydropyridin-2-one hydrochloride]
6.35 | Cn1c(SCCCN2CC[C@]3(CC3c3ccc(C(F)(F)F)cc3F)C2)nnc1-c1ccc(=O)[nH]c1 (stereo partly drawn) [Example 129, 5-[5-({3-[(1S,3S/1R,3R)-1-[2-fluoro-4-(trifluoromethyl)phenyl]-5-azaspiro[2.4]heptan-5-yl]propyl}sulfanyl)-4-methyl-4H-1,2,4-triazol-3-yl]-1,2-dihydropyridin-2-one]
6.16 | Cn1c(SCCCN2CC[C@]3(CC3c3ccc(F)cc3F)C2)nnc1-c1ccc(=O)[nH]c1 (stereo partly drawn) [Example 130, 5-[5-({3-[(1S,3S/1R,3R)-1-(2,4-difluorophenyl)-5-azaspiro[2.4]heptan-5-yl]propyl}sulfanyl)-4-methyl-4H-1,2,4-triazol-3-yl]-1,2-dihydropyridin-2-one]
6.16 | Cn1c(SCCCN2CC[C@]3(CC3c3ccc(F)cc3)C2)nnc1-c1ccc(=O)[nH]c1 (stereo partly drawn) [Example 131, 5-[5-({3-[(1R,3S/1S,3R)-1-(4-fluorophenyl)-5-azaspiro[2.4]heptan-5-yl]propyl}sulfanyl)-4-methyl-4H-1,2,4-triazol-3-yl]-1,2-dihydropyridin-2-one]
6.87 | Cn1c(SCCCN2CC[C@]3(CC3c3ccccc3C(F)(F)F)C2)nnc1-c1ccc(=O)[nH]c1 (stereo partly drawn) [Example 132, 5-[4-methyl-5-({3-[(1S,3S/1R,3R)-1-[2-(trifluoromethyl)phenyl]-5-azaspiro[2.4]heptan-5-yl]propyl}sulfanyl)-4H-1,2,4-triazol-3-yl]-1,2-dihydropyridin-2-one]
6.54 | Cn1c(SCCCN2CC[C@]3(CC3c3ccccc3C(F)(F)F)C2)nnc1-c1cc[nH]c(=O)c1 (stereo partly drawn) [Example 135, 4-[4-methyl-5-({3-[(1S,3S/1R,3R)-1-[2-(trifluoromethyl)phenyl]-5-azaspiro[2.4]heptan-5-yl]propyl}sulfanyl)-4H-1,2,4-triazol-3-yl]-1,2-dihydropyridin-2-one]
5.83 | Cl.Cn1c(SCCCN2CC[C@]3(C[C@@H]3c3ccc(C(F)(F)F)cc3F)C2)nnc1-c1ccn(C)c(=O)c1 [Example 139, 4-[5-({3-[(1S,3S)-1-[2-fluoro-4-(trifluoromethyl)phenyl]-5-azaspiro[2.4]heptan-5-yl]propyl}sulfanyl)-4-methyl-4H-1,2,4-triazol-3-yl]-1-methyl-1,2-dihydropyridin-2-one hydrochloride]
6.23 | Cn1c(SCCCN2CC[C@]3(C[C@H]3c3ccc(C(F)(F)F)cc3F)C2)nnc1-c1ccncc1 [Example 164, (1R,3S/1S,3R)-1-[2-fluoro-4-(trifluoromethyl)phenyl]-5-(3-{[4-methyl-5-(pyridin-4-yl)-4H-1,2,4-triazol-3-yl]sulfanyl}propyl)-5-azaspiro[2.4]heptane]
6.44 | Cc1ncccc1-c1nnc(SCCCN2CC[C@]3(CC3c3ccccc3C(F)(F)F)C2)n1C.Cl.Cl (stereo partly drawn) [Example 168, (1S,3S/1R,3R)-5-(3-{[4-methyl-5-(2-methylpyridin-3-yl)-4H-1,2,4-triazol-3-yl]sulfanyl}propyl)-1-[2-(trifluoromethyl)phenyl]-5-azaspiro[2.4]heptane dihydrochloride]
6.01 | Cc1ccc(-c2nnc(SCCCN3CC[C@]4(CC4c4ccc(C(F)(F)F)cc4)C3)n2C)cn1 (stereo partly drawn) [Example 169, (1R,3S/1S,3R)-5-(3-{[4-methyl-5-(6-methylpyridin-3-yl)-4H-1,2,4-triazol-3-yl]sulfanyl}propyl)-1-[4-(trifluoromethyl)phenyl]-5-azaspiro[2.4]heptane]
5.75 | Cn1c(SCCCN2CC[C@]3(CC3c3ccc(C(F)(F)F)cc3)C2)nnc1-c1cccnc1F (stereo partly drawn) [Example 173, (1R,3S/1S,3R)-5-(3-{[5-(2-fluoropyridin-3-yl)-4-methyl-4H-1,2,4-triazol-3-yl]sulfanyl}propyl)-1-[4-(trifluoromethyl)phenyl]-5-azaspiro[2.4]heptane]
5.84 | CNC(=O)c1cccc(-c2nnc(SCCCN3CC[C@]4(C[C@@H]4c4ccc(C(F)(F)F)cc4)C3)n2C)n1.Cl [Example 195, N-methyl-6-[4-methyl-5-({3-[(1R,3S)-1-[4-(trifluoromethyl)phenyl]-5-azaspiro[2.4]heptan-5-yl]propyl}sulfanyl)-4H-1,2,4-triazol-3-yl]pyridine-2-carboxamide hydrochloride]
5.66 | CN(C)C(=O)c1cccc(-c2nnc(SCCCN3CC[C@]4(C[C@@H]4c4ccc(C(F)(F)F)cc4)C3)n2C)n1.Cl [Example 197, N,N-dimethyl-6-[4-methyl-5-({3-[(1R,3S)-1-[4-(trifluoromethyl)phenyl]-5-azaspiro[2.4]heptan-5-yl]propyl}sulfanyl)-4H-1,2,4-triazol-3-yl]pyridine-2-carboxamide hydrochloride]
5.81 | Cc1ccc(C(N)=O)nc1-c1nnc(SCCCN2CC[C@]3(C[C@@H]3c3ccc(C(F)(F)F)cc3)C2)n1C.Cl [Example 199, 5-methyl-6-[4-methyl-5-({3-[(1R,3S)-1-[4-(trifluoromethyl)phenyl]-5-azaspiro[2.4]heptan-5-yl]propyl}sulfanyl)-4H-1,2,4-triazol-3-yl]pyridine-2-carboxamide hydrochloride]
5.91 | Cc1cncc(-c2nnc(SCCCN3CC[C@]4(CC4c4ccc(C(F)(F)F)cc4)C3)n2C)n1 (stereo partly drawn) [Example 222, (1R,3S/1S,3R)-5-(3-{[4-methyl-5-(6-methylpyrazin-2-yl)-4H-1,2,4-triazol-3-yl]sulfanyl}propyl)-1-[4-(trifluoromethyl)phenyl]-5-azaspiro[2.4]heptane]
